pIC50: −log10 of the molar value. *1 amine or outer side, *2 acyl side, *3 side chain or, on linkers, in order; H or OH if unused. Where a SMILES comes first, the peptide text is derived from it. Bridges are numbered along the chain shown (N, C = ends). [ ]: non-standard residue; d: D form. The star is where a group is joined. ξ: configuration not given here. hPhe(3,5-F2-4-CF3) = N[C@@H](CCc1cc(F)c(C(F)(F)F)c(F)c1)C(=O)O; hPhe(3-Cl-4-CF3) = N[C@@H](CCc1ccc(C(F)(F)F)c(Cl)c1)C(=O)O; NPrPhe(4-CF3) = CCCN[C@@H](Cc1ccc(C(F)(F)F)cc1)C(=O)O; NEtAsp = CCN([C@@H](CC(=O)[*:3])C(=O)[*:2])[*:1]; NPrPhe(4-Me) = CCCN[C@@H](Cc1ccc(C)cc1)C(=O)O; X31 = C=CCN([C@@H](Cc1ccccc1)C(=O)[*:2])[*:1]; NMeGly(cPent) = CN[C@H](C(=O)O)C1CCCC1; NMeNle(5-ene) = C=CCC[C@H](NC)C(=O)O; αMeI = CC[C@H](C)[C@](C)(N)C(=O)O; dIle(3ξ) = CCC(C)[C@@H](N)C(=O)O; NMeD = CN[C@@H](CC(=O)O)C(=O)O; NMeL = CN[C@@H](CC(C)C)C(=O)O; NMeNva = CCC[C@H](NC)C(=O)O; NMeAbu = CC[C@H](NC)C(=O)O; Morpholide = C1CN(*)CCO1; NMeA = CN[C@@H](C)C(=O)O; Ac5c = NC1(C(=O)O)CCCC1; Aze = O=C(O)[C@@H]1CCN1; Ac4c = NC1(C(=O)O)CCC1; NEtG = CCNCC(=O)O; Sar = CNCC(=O)O
Columns and labels:
HRAS wild-type protein = HRAS wild-type protein (Homo sapiens, UniProt P01112); assay: Binding to HRAS by surface plasmon resonance (SPR), KD and KD ratio to KRAS
Chain of HRAS wild-type protein (P01112 whole entry): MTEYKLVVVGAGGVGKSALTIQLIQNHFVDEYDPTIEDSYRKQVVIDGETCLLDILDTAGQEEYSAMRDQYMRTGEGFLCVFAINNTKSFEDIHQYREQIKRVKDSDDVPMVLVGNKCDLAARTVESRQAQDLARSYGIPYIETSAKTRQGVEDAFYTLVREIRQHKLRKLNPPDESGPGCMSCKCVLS
Outline: (§1)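 Compound binding is evaluated by SPR single-cycle kinetics, with concentrations added intermittently from low to high for 75 s each. Target surfaces carry GDP-loaded biotinylated Avi-RAS at about 100–300 RU, regenerated after each cycle; temperature 30°C. A 1:1 binding model gives KD.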

[1] = molecular target: GDP-bound NRAS wild-type protein (Homo sapiens, UniProt P01111); assay: Binding to NRAS by surface plasmon resonance (SPR), KD and KD ratio to KRAS
Chain of GDP-bound NRAS wild-type protein (P01111 whole entry): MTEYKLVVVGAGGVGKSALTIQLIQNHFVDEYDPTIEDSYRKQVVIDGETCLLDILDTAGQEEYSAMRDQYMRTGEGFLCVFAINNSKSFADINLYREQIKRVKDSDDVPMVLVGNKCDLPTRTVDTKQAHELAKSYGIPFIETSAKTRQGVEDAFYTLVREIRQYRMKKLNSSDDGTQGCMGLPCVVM
Outline: as §1

[2] = tested on: human lung cancer strain NCI-H441; assay type: cell-based
Outline: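 Proliferation was scored by […] measured after the reagent was added to cultures kept at 37°C in 5% carbon dioxide.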

[3] = ratio of KD for HRAS wild-type protein to KD for KRAS
[4] = ratio of KD for GDP-bound NRAS wild-type protein to KD for KRAS
[5] = ratio of KD value for HRAS wild-type protein to KD value for KRAS (SPR)
[6] = ratio of KD value for GDP-bound NRAS wild-type protein to KD value for KRAS (SPR)
[7] = ratio of the KD value with respect to HRAS wild-type protein to the KD value with respect to KRAS
[8] = ratio of the KD value with respect to GDP-bound NRAS wild-type protein to the KD value with respect to KRAS

Row | SMILES | HRAS /KRAS (HRAS wild-type protein; [3]) | NRAS /KRAS [1, 4] | pIC50 [2] | HRAS /KRAS (HRAS wild-type protein; [5]) | NRAS /KRAS [1, 6] | HRAS /KRAS (HRAS wild-type protein; [7]) | NRAS /KRAS [1, 8]
1 | CCCN1C(=O)CN(C)C(=O)[C@@H]2CCN2C(=O)[C@H]([C@@H](C)CC)NC(=O)[C@H](CC(C)C)N(C)C(=O)C[C@@H](C(=O)N2CCOCC2)N(C)C(=O)[C@H](C2CCCC2)N(C)C(=O)[C@](C)([C@@H](C)CC)NC(=O)[C@@H]2CCCN2C(=O)[C@H](CCc2cc(F)c(C(F)(F)F)c(F)c2)NC(=O)CN(C)C(=O)[C@@H]1Cc1ccc(C(F)(F)F)cc1 [PP0774] ([NMeL]I[Aze][Sar][NPrPhe(4-CF3)][Sar][hPhe(3,5-F2-4-CF3)]P[αMeI][NMeGly(cPent)][NMeD]-Morpholide; lactam N-11) | B (a compound having 3 or more and less than 10 is denoted as B) | B (a compound having 3 or more and less than 10 is denoted as B) | 6.32 | – | – | – | –
2 | CCC[C@H]1C(=O)N[C@@H]([C@@H](C)CC)C(=O)N(C2CC2)CC(=O)N(C)[C@H]2C/C=C\CCN(C2=O)[C@@H](Cc2ccc(C)cc2)C(=O)N(C)CC(=O)N[C@@H](CCc2cc(F)c3c(c2)CCC3)C(=O)N2C[C@H](OCC)C[C@H]2C(=O)NC2(CC(C)(C)C2)C(=O)N(C)[C@@H](C2CCCC2)C(=O)N(C)[C@H](C(=O)N(C)C)CC(=O)N1C [PP2879] | A (a compound having 10 or more and less than 20 is denoted as A) | A (a compound having 10 or more and less than 20 is denoted as A) | 6.91 | – | – | – | –
3 | CC[C@H](C)[C@@H]1NC(=O)[C@H](CC(C)C)N(C)C(=O)C[C@@H](C(=O)N2CCOCC2)N(CC)C(=O)[C@H](C2CCCC2)N(C)C(=O)C2(CCCC2)NC(=O)[C@@H]2CCCN2C(=O)[C@H](CCc2ccc(C(F)(F)F)c(Cl)c2)NC(=O)CN(C)C(=O)[C@H](Cc2ccc(F)cc2)N2CCCCC[C@@H](C2=O)N(C)C(=O)CN(C)C1=O [PP0970] | B (a compound having 3 or more and less than 10 is denoted as B) | B (a compound having 3 or more and less than 10 is denoted as B) | 6.47 | – | – | – | –
4 | CC[C@H](C)[C@@H]1NC(=O)[C@H](CC2CCC2)N(C)C(=O)C[C@@H](C(=O)N(C)C)N(C)C(=O)[C@H](C2CCCC2)N(C)C(=O)C2(CC(C)(C)C2)NC(=O)[C@@H]2CC(F)(F)CN2C(=O)[C@H](CCc2cc(F)c(C(F)(F)F)c(F)c2)NC(=O)CN(C)C(=O)[C@H](Cc2ccc(C(F)(F)F)cc2)N2CC/C=C\C[C@@H](C2=O)N(C)C(=O)CN(C)C1=O [PP1716] | – | – | 8.42 | A (a compound having 10 or more and less than 20 is denoted as A) | AA (a compound having 20 or more is denoted as AA) | – | –
5 | CCO[C@@H]1C[C@H]2C(=O)NC3(CCC3)C(=O)N(C)[C@@H](C3CCCC3)C(=O)N(CCC3CCC3)[C@H](C(=O)N3CCOCC3)CC(=O)N(C)[C@@H](CC(C)C)C(=O)N[C@@H]([C@@H](C)CC)C(=O)N(C)CC(=O)N(C)[C@H]3CCCCN(C3=O)[C@@H](Cc3ccc(C(F)(F)F)cc3)C(=O)N(C)CC(=O)N[C@@H](CCc3cc(F)c(C(F)(F)F)c(F)c3)C(=O)N2C1 [PP0650] | – | – | 7.34 | – | – | B (a compound having 3 or more and less than 10 is denoted as B) | C (A compound having a KD ratio of 0.1 or more and less than 3 is denoted as C)
6 | C=CCC[C@H]1C(=O)N(CC=C)[C@@H](Cc2ccccc2)C(=O)N(C)CC(=O)N[C@@H](CCc2ccc(C(F)(F)F)c(Cl)c2)C(=O)N2CCC[C@H]2C(=O)NC2(CCCC2)C(=O)N(C)[C@@H](C2CCCC2)C(=O)N(C)[C@H](C(=O)N2CCOCC2)CC(=O)N(C)[C@@H](CC(C)C)C(=O)N[C@H](C(C)CC)C(=O)N(C)CC(=O)N1C (stereo partly drawn) [PP0599] ([NMeL][dIle(3ξ)][Sar][NMeNle(5-ene)][X31][Sar][hPhe(3-Cl-4-CF3)]P[Ac5c][NMeGly(cPent)][NMeD]-Morpholide; lactam N-11) | – | – | 5.55 | – | – | B (a compound having 3 or more and less than 10 is denoted as B) | C (A compound having a KD ratio of 0.1 or more and less than 3 is denoted as C)
7 | CCCN1C(=O)CN(C)C(=O)CN(C)C(=O)[C@H]([C@@H](C)CC)NC(=O)[C@H](CC(C)C)N(C)C(=O)C[C@@H](C(=O)N2CCOCC2)N(C)C(=O)[C@H](C2CCCC2)N(C)C(=O)C2(CCC2)NC(=O)[C@H](CC)N(C)C(=O)[C@H](CCc2ccc(C(F)(F)F)c(Cl)c2)NC(=O)CN(C)C(=O)[C@@H]1Cc1ccc(C(F)(F)F)cc1 [PP1918] ([NMeL]I[Sar][Sar][NPrPhe(4-CF3)][Sar][hPhe(3-Cl-4-CF3)][NMeAbu][Ac4c][NMeGly(cPent)][NMeD]-Morpholide; lactam N-11) | – | – | 7.48 | – | – | C (A compound having a KD ratio of 0.1 or more and less than 3 is denoted as C) | B (a compound having 3 or more and less than 10 is denoted as B)
8 | CCC[C@H]1C(=O)N[C@@H]([C@@H](C)CC)C(=O)N(C)CC(=O)N(C)[C@H]2C/C=C\CCN(C2=O)[C@@H](Cc2ccc(C)cc2)C(=O)N(C)CC(=O)N[C@@H](CCc2ccc(C(F)(F)F)c(Cl)c2)C(=O)N2C[C@H](CC)C[C@H]2C(=O)NC2(CC(C)(C)C2)C(=O)N(C)[C@@H](C2CCCC2)C(=O)N(C)[C@H](C(=O)N(C)C)CC(=O)N1C [PP2212] | – | – | 7.63 | – | – | B (a compound having 3 or more and less than 10 is denoted as B) | A (a compound having 10 or more and less than 20 is denoted as A)
9 | CC[C@H](C)[C@@H]1NC(=O)[C@H](CC2CC2)N(C)C(=O)C[C@@H](C(=O)N2CCCC2)N(C)C(=O)[C@H](C2CCCC2)N(C)C(=O)C2(CCCC2)NC(=O)[C@@H]2C[C@@H](C(F)(F)F)CN2C(=O)[C@H](CCc2cc(F)c(C(F)(F)F)c(F)c2)NC(=O)CN(C)C(=O)[C@H](Cc2ccc(C(F)(F)F)cc2)N2CC/C=C\C[C@@H](C2=O)N(C)C(=O)CN(C)C1=O [PP1506] | – | – | 7.13 | A (a compound having 10 or more and less than 20 is denoted as A) | AA (a compound having 20 or more is denoted as AA) | – | –
10 | CC[C@H](C)[C@@H]1NC(=O)[C@H](CC(C)C)N(C)C(=O)C[C@@H](C(=O)N2CCOCC2)N(C)C(=O)[C@H](C2CCCC2)N(C)C(=O)C2(CCCC2)NC(=O)[C@@H]2CCCN2C(=O)[C@H](CCc2ccc(C(F)(F)F)c(Cl)c2)NC(=O)CN(C)C(=O)[C@H](Cc2ccc(F)cc2)N2CCCCC[C@@H](C2=O)N(C)C(=O)CN(C)C1=O [PP0612] | – | – | 7.36 | – | – | B (a compound having 3 or more and less than 10 is denoted as B) | B (a compound having 3 or more and less than 10 is denoted as B)
11 | CCC[C@H]1C(=O)N[C@@H]([C@@H](C)CC)C(=O)N(C2CC2)CC(=O)N(C)[C@H]2C/C=C\CCN(C2=O)[C@@H](Cc2ccc(C(F)(F)F)cc2)C(=O)N(C)CC(=O)N[C@@H](CCc2cc(F)c(C(F)(F)F)c(F)c2)C(=O)N2C[C@H](OCC)C[C@H]2C(=O)NC2(CC(C)(C)C2)C(=O)N(C)[C@@H](C2CCCC2)C(=O)N(C)[C@H](C(=O)N(C)C)CC(=O)N1C [PP2101] | – | – | 7.78 | – | – | B (a compound having 3 or more and less than 10 is denoted as B) | A (a compound having 10 or more and less than 20 is denoted as A)
12 | CCCC[C@H]1C(=O)N[C@@H]([C@@H](C)CC)C(=O)N(C)CC(=O)N(C)[C@H]2C/C=C\CCN(C2=O)[C@@H](Cc2ccc(C(F)(F)F)cc2)C(=O)N(C)CC(=O)N[C@@H](CCc2ccc(C(F)(F)F)c(Cl)c2)C(=O)N2C[C@H](OCC)C[C@H]2C(=O)NC2(CC(C)(C)C2)C(=O)N(C)[C@@H](C2CCCC2)C(=O)N(C)[C@H](C(=O)N(C)C)CC(=O)N1C [PP1750] | – | – | 8.47 | B (a compound having 3 or more and less than 10 is denoted as B) | A (a compound having 10 or more and less than 20 is denoted as A) | – | –
13 | CCCN1C(=O)CN(C)C(=O)CN(C)C(=O)[C@H]([C@@H](C)CC)NC(=O)[C@H](CC(C)C)N(C)C(=O)C[C@@H](C(=O)N2CCOCC2)N(C)C(=O)[C@H](C2CCCC2)N(C)C(=O)C2(CCCC2)NC(=O)[C@@H]2CCCN2C(=O)[C@H](CCc2ccc(C(F)(F)F)c(Cl)c2)NC(=O)CN(CC)C(=O)[C@@H]1Cc1ccc(C)cc1 [PP0066] ([NMeL]I[Sar][Sar][NPrPhe(4-Me)][NEtG][hPhe(3-Cl-4-CF3)]P[Ac5c][NMeGly(cPent)][NMeD]-Morpholide; lactam N-11) | C (A compound having a KD ratio of 0.1 or more and less than 3 is denoted as C) | B (a compound having 3 or more and less than 10 is denoted as B) | 7.58 | – | – | – | –
14 | CCC[C@H]1C(=O)N[C@@H]([C@@H](C)CC)C(=O)N(C)[C@@H](C)C(=O)N2CC[C@H]2C(=O)N(CCC)[C@@H](Cc2ccc(C(F)(F)F)cc2)C(=O)N(C)CC(=O)N[C@@H](CCc2ccc(C(F)(F)F)c(Cl)c2)C(=O)N2CCC[C@H]2C(=O)NC2(CCC2)C(=O)N(C)[C@@H](C2CCCC2)C(=O)N(CC)[C@H](C(=O)N2CCOCC2)CC(=O)N1C [PP1955] ([NMeNva]I[NMeA][Aze][NPrPhe(4-CF3)][Sar][hPhe(3-Cl-4-CF3)]P[Ac4c][NMeGly(cPent)][NEtAsp]-Morpholide; lactam N-11) | – | – | 8.36 | – | – | B (a compound having 3 or more and less than 10 is denoted as B) | C (A compound having a KD ratio of 0.1 or more and less than 3 is denoted as C)
15 | CCO[C@@H]1C[C@H]2C(=O)NC3(CCC3)C(=O)N(C)[C@@H](C3CCCC3)C(=O)N(CCC3CCCC3)[C@H](C(=O)N(C)C)CC(=O)N(C)[C@@H](CC(C)C)C(=O)N[C@@H]([C@@H](C)CC)C(=O)N(C)CC(=O)N(C)[C@H]3CCCCCN(C3=O)[C@@H](Cc3ccc(F)cc3)C(=O)N(C)CC(=O)N[C@@H](CCc3ccc(C(F)(F)F)c(Cl)c3)C(=O)N2C1 [PP0976] | B (a compound having 3 or more and less than 10 is denoted as B) | B (a compound having 3 or more and less than 10 is denoted as B) | 5.93 | – | – | – | –
